{
  "source": "patent EP4707279A1",
  "about": "“SUBSTITUTED TRICYCLIC HETEROCYCLIC COMPOUND AS PHARMACEUTICAL FOR TREATMENT OR PREVENTION OF COVID-19” (priority 2023, dated 2024)",
  "data": [
    {"tested_on": "SARS-CoV-2", "test": "CPE inhibition assay, anti-SARS-CoV-2 virus activity in vitro (Test Example 4)", "type": "cell-based", "details": "CPE inhibition at 10 µM; VeroE6-TMPRSS2 cells; MOI 0.01; third day post infection; average of three tests", "values": [
      {"compound": "Ethyl (6S,9R,11aS)-6-benzyl-11b-hydroxy-2,4.7-trioxo-1,3-bis(thiophen-2-ylmethyl) decahydro-2H-pyrrolo[2',1':3,4] pyrazino[1,2-a][1,3,5] triazine-9-carboxylate [Compound 23A]", "Anti SARS-CoV-2 activity": "A (a CPE inhibition effect of 5% or more)"},
      {"compound": "(6R.11aR)-1,3,6-tribenzyl-11b-hydroxy-11a-methylhexahydro-2H-pyrrolo[2',1':3,4] pyrazino[1,2-a][1,3,5] triazine-2,4,7(3H,6H)-trione [Compound 19A]", "Anti SARS-CoV-2 activity": "A (a CPE inhibition effect of 5% or more)"},
      {"compound": "(6R,10R,11aR)-1.3,6-tribenzyl-10-(benzyl oxy)-11b-hydroxyhexahydro-2H-pyrrolo [2',1':3,4]pyrazino[1,2-a][1.3,5] triazine-2,4,7(3H.6H)-trione [Compound 15A]", "Anti SARS-CoV-2 activity": "C (less than 1%)"},
      {"compound": "Ethyl (6R,9S,11aR,11bR)-1,3-dibenzyl-11b-hydroxy-6-(4-methoxybenzyl)-2,4.7-trioxodecahydro-2H-pyrrolo [2',1':3,4]pyrazino[1,2-a][1,3,5] triazine-9-carboxylate [Compound 6A]", "Anti SARS-CoV-2 activity": "C (less than 1%)"},
      {"compound": "Ethyl (6R)-1,3,6-tribenzyl-11b-hydroxy-2,4,7-trioxodecahydro-2H-pyrrolo[2',1':3,4] pyridazino[1,2-a] [1,3,5]triazine-9-carboxylate [Compound 22A]", "Anti SARS-CoV-2 activity": "B (a CPE inhibition effect of less than 5% but 1% or more)"},
      {"compound": "CC(C)OC(=O)[C@@H]1CC[C@H]2N1C(=O)[C@@H](Cc1ccccc1)N1C(=O)N(Cc3cccs3)C(=O)N(Cc3cccs3)[C@]21O", "note": "[Compound 18G, Isopropyl (6R,9S,11aR,11bR)-6-benzyl-11b-hydroxy-2,4,7-trioxo-1,3-bis(thiophen-2-ylmethyl)decahydro-2H-pyrrolo [2',1':3,4]pyridazine[1,2-a][1,3,5]triazine-9-carboxylate]", "Anti SARS-CoV-2 activity": "A (a CPE inhibition effect of 5% or more)"},
      {"compound": "(6R.9S)-1.3-benzyl-6-(4-fluorobenzyl)-N-(naphthalen-2-ylmethyl)-2, 4,7-trioxo-1,3,4,6,7,9,10,11-octahydro-2H-pyrrolo [2',1':3,4]pyridazine [1,2-a][1,3,5]triazine-9-carboxamide [Compound 5E]", "Anti SARS-CoV-2 activity": "C (less than 1%)"},
      {"compound": "O=C1[C@@H](Cc2ccccc2)N2C(=O)N(Cc3ccccc3)C(=O)N(Cc3ccccc3)[C@]2(O)[C@H]2CC[C@@H](CNCc3ccc4ccccc4c3)N12", "note": "[Compound 1F, (6R,9S,11aR,11bR)-1,3,6-Tribenzyl-11b-hydroxy-9-(((naphthalen-2-ylmethyl)amino)methyl)hexahydro-2H-pyrrolo[2',1':3,4]pyridazine[1,2-a][1,3,5]triazine-2,4,7(3H,6H)-trione]", "Anti SARS-CoV-2 activity": "C (less than 1%)"},
      {"compound": "(6S,9R,11aS,11bS)-1,3,6-Tri benzyl-11b-hydroxy-2,4,7-tri oxodecahydro-2H-pyrrolo [2',1':3,4]pyridazine[1,2-a] [1,3,5]triazine-9-carboxylic acid [Compound 4C]", "Anti SARS-CoV-2 activity": "C (less than 1%)"},
      {"compound": "(6R,9S,11aR,11bR)-1,3-Dibenzyl-11b-hydroxy-6-isopropyl-2,4,7-trioxo-phenyl-deca-hydro-2H-pyrrolo [2',1':3,4]pyrazino[1, 2-a][1,3,5]triazine-9-carboxamide [Compound 3G]", "Anti SARS-CoV-2 activity": "A (a CPE inhibition effect of 5% or more)"},
      {"compound": "Cc1noc([C@@H]2CC[C@H]3N2C(=O)[C@@H](Cc2ccccc2)N2C(=O)N(Cc4cccs4)C(=O)N(Cc4cccs4)C32O)n1", "note": "(stereo partly drawn) [Compound 18I, (6R,9S,11aR)-6-benzyl-11b-hydroxy-9-(3-methyl-1,2,4-oxadiazol-5-yl)-1,3-bis(thiophen-2-ylmethyl)hexahydro-2H-pyrrolo[2',1':3,4]pyridazine[1,2-a][1,3,5]triazine-2,4,7(3H,6H)-trione]", "Anti SARS-CoV-2 activity": "B (a CPE inhibition effect of less than 5% but 1% or more)"},
      {"compound": "O=C(O)[C@@H]1CC[C@H]2N1C(=O)[C@@H](Cc1ccccc1)N1C(=O)N(Cc3ccccc3)C(=O)N(Cc3ccccc3)[C@]21O", "note": "[Compound 1C, (6R,9S,11aR,11bR)-1,3,6-Tribenzyl-11b-hydroxy-2,4,7-trioxo-2H-pyrrolo[2',1':3,4]pyridazino[1,2-a][1,3,5] triazine-9-carboxylic acid]", "Anti SARS-CoV-2 activity": "C (less than 1%)"},
      {"compound": "(6R,9S,11aR,11bR)-1,3-Dibenzyl-9-(4-fluoroisoindolin-2-carbonyl)-11b-hydroxy-6-isopropylhexahydro -2H-pyrrolo[2',1':3,4]pyri dazino[1,2-a][1,3,5] triazine-2.4. 7(3H.6H)-trione [Compound 3J]", "Anti SARS-CoV-2 activity": "A (a CPE inhibition effect of 5% or more)"},
      {"compound": "Ethyl (6R.9S.11aR.11b R) 6 benzyl 11b-hydroxy 2,4,7 trioxo-1.3 bis(thiophen 2 ylm ethyl)decahydro-2H-pyrrolo[2',1':3,4] pyridazine[1,2-a] [1,3,5]triazine 9 carboxylate [Compound 18A]", "Anti SARS-CoV-2 activity": "A (a CPE inhibition effect of 5% or more)"}
    ]},
    {"tested_on": "SARS-CoV-2", "test": "CPE inhibition assay, anti-SARS-CoV-2 virus activity in vitro (Test Example 4)", "type": "cell-based", "details": "Severe acute respiratory syndrome coronavirus 2, VeroE6/TMPRSS2, 72 h, read-out: Anti SARS-CoV-2 activity", "units": {"inhibition at 10 µM": "%"}, "values": [
      {"compound": "CNC(=O)[C@@H]1CC[C@H]2N1C(=O)[C@@H](Cc1ccccc1)N1C(=O)N(Cc3cccs3)C(=O)N(Cc3cccs3)[C@]21O", "note": "[Compound 18F, (6R,9S,11aR,11bR)-6-benzyl-11b-hydroxy-N-methyl-2,4,7-trioxo-1,3-bis(thiophen-2-ylmethyl)decahydro-2H-pyrrolo [2',1':3,4]pyrazino[1,2-a][1,3,5]triazine-9-carboxamide]", "inhibition at 10 µM": "1 to 5"},
      {"compound": "CCOC(=O)[C@@H]1CCC2=C3N(Cc4ccccc4)C(=O)N(Cc4ccccc4)C(=O)N3[C@H](C(C)C)C(=O)N21", "note": "[Compound 3B, Ethyl (6R.9S) 1,3-dibenzyl 6 isopropyl-2.4.7 trioxo-1,3,4,6,7,9,10,11-octahydro 2H-pyrrolo[2',1':3.4]pyrazi no[1,2 a][1,3,5] triazine 9 carboxylate]", "inhibition at 10 µM": "> 5"},
      {"compound": "O=C(NCc1ccc2ccccc2c1)[C@H]1CCCC2=C3N(Cc4ccccc4)C(=O)N(Cc4ccccc4)C(=O)N3[C@H](Cc3ccccc3)C(=O)N21", "note": "[Compound 25E, (6R,9R)-1,3,6-Tribenzyl-N-(naphthalen-2-ylmethyl)-2,4,7-trioxo-1,2,3,4,6,7,9,10,11,12-decahydropyrido[2',1':3,4] pyrazino[1,2-a][1,3,5]triazine-9-carboxamide]", "inhibition at 10 µM": "1 to 5"},
      {"compound": "O=C(NCc1ccc2ccccc2c1)[C@@H]1CCC2=C3N(c4ccccc4)C(=O)N(c4ccccc4)C(=O)N3[C@H](Cc3ccccc3)C(=O)N21", "note": "[Compound 16E, (6R,9S)-6-Benzyl-N-(naphthalen-2-ylmethyl)-2,4,7-trioxo-1,3-diphenyl-1,3,4,6,7,9,10,11-octahydro-2H-pyrrolo [2',1':3,4]pyrazino[1,2-a][1,3,5]triazine-9-carboxamide]", "inhibition at 10 µM": "1 to 5"},
      {"compound": "CCOC(=O)[C@@H]1CC[C@H]2N1C(=O)[C@@H](Cc1ccc3ccccc3c1)N1C(=O)N(Cc3ccccc3)C(=O)N(Cc3ccccc3)[C@]21O", "note": "[Compound 7A, Ethyl (6R,9S,11aR,11bR)-1,3-dibenzyl-11b-hydroxy-6-(naphthalen-2-ylmethyl)-2,4,7-trioxodecahydro-2H-pyrrolo[2',1' :3,4]pyrazino[1,2-a][1,3,5]triazine-9-carboxylate]", "inhibition at 10 µM": "< 1"},
      {"compound": "COC(=O)[C@@H]1CCC[C@H]2N1C(=O)[C@@H](Cc1ccccc1)N1C(=O)N(Cc3ccccc3)C(=O)N(Cc3ccccc3)C21O", "note": "(stereo partly drawn) [Compound 25A, Methyl (6R,9S,12aR)-1,3,6-tribenzyl-12b-hydroxy-2,4,7-trioxododecahydropyri do[2',1':3,4]pyrazino[1,2-a][1,3,5]triazine-9-carboxylate]", "inhibition at 10 µM": "> 5"},
      {"compound": "O=C1C(Cc2ccccc2)N2C(=O)N(Cc3ccccc3)C(=O)N(Cc3ccccc3)C2=C2C[C@@H](OCc3ccccc3)CN12", "note": "(stereo partly drawn) [Compound 15B, (6R,10R)-1,3,6-tribenzyl-10-(benzyloxy)-1,9,10,11-tetrahydro-2H-pyrrolo[2',1':3,4] pyridazino[1,2-a][1,3,5] triazine-2,4,7(3H,6H)-trione]", "inhibition at 10 µM": "< 1"},
      {"compound": "O=C(NCc1ccc2ccccc2c1)[C@H]1CCC2=C3N(Cc4ccccc4)C(=O)N(Cc4ccccc4)C(=O)N3[C@@H](Cc3ccccc3)C(=O)N21", "note": "[Compound 4E, (6S,9R)-1,3,6-Tribenzyl-N-(naphthalen-2-ylmethyl)-2,4,7-trioxo-1,3,4,6,7,9,10,1 1-octahydro-2H-pyrrolo [2',1':3,4]pyrazino[1,2-a] [1,3,5]triazine-9-carboxamide]", "inhibition at 10 µM": "1 to 5"},
      {"compound": "CCOC(=O)[C@@H]1CC[C@H]2N1C(=O)[C@@H](C(C)C)N1C(=O)N(Cc3ccco3)C(=O)N(Cc3ccco3)[C@]21O", "note": "[Compound 28A, Ethyl (6R,9S,11aR,11bR)-1,3-bis(furan-2-ylmethyl)-11b-hydroxy-6-isopropyl-2,4,7-trioxodecahydro-2H-pyrrolo[2',1':3,4] pyrazino[1,2-a][1,3,5] triazine-9-carboxylate]", "inhibition at 10 µM": "> 5"},
      {"compound": "CC(C)[C@@H]1C(=O)N2[C@H](C(=O)NCc3cnc4ccccc4c3)CC[C@@H]2[C@@]2(O)N(Cc3ccco3)C(=O)N(Cc3ccco3)C(=O)N12", "note": "[Compound 28F, (6R,9S,11aR,11bR)-1,3-bis(2-furylmethyl)-11b-hydroxy-6-isopropyl-2,4,7-trioxo-N-(3-quinolylmethyl)decahydro-2H-pyrrolo[2',1':3,4]pyrazino[1,2-a][1,3,5]triazine-9-carboxamide]", "inhibition at 10 µM": "> 5"},
      {"compound": "CCOC(=O)[C@H]1CC[C@@H]2N1C(=O)[C@H](C(C)C)N1C(=O)N(Cc3ccccc3)C(=O)N(Cc3ccccc3)[C@@]21O", "note": "[Compound 26A, Ethyl (6S,9R,11aS,11bS)-1,3-dibenzyl-11b-hydroxy-6-isopropyl-2,4,7-trioxodecahydro-2H-pyrrolo[2',1':3,4]pyrazi no[1,2-a][1,3,5] triazine-9-carboxylate]", "inhibition at 10 µM": "> 5"},
      {"compound": "O=C(NCc1ccc2ccccc2c1)[C@@H]1CC[C@H]2N1C(=O)C1(Cc3ccccc3C1)N1C(=O)N(Cc3ccccc3)C(=O)N(Cc3ccccc3)C21O", "note": "(stereo partly drawn) [Compound 21D, (9'S,11a'R)-1',3'-Dibenzyl-11b'-Hydroxy-N-(naphthalen-2-ylmethyl)-2',4',7'-trioxo-1,1',3,3',4',9',10',11',11a',1 1b'-decahydro-2'H,7'H-spiro[indene-2,6'-pyrrolo[2',1':3,4]pyrazino[1,2-a][1,3,5]triazine]-9'-carboxamide]", "inhibition at 10 µM": "1 to 5"}
    ]}
  ]
}
